US20230064879A1, “NANODRUG PARTICLES, THE USE THEREOF, AND PREPARATION METHOD THEREOF” (NATIONAL YANG MING CHIAO TUNG UNIVERSITY, priority 2021, published 2023)
≈ marks a conversion by molar mass, not a printed value.

Experiments:
[1] = In vitro release of camptothecin (dialysis bag, Korsmeyer-Peppas model); type: physicochemical; details: PBS pH 7.4, 37° C., 168 hours, MWCO 2,000 Da
Experimental: The in vitro release of camptothecin under different conditions were compared; the conditions were: […] The test duration time was 168 hours, the test temperature was 37° C., and the dialysis bag with molecular weight cut-off (MWCO) of 2,000 Da was used.

[2] = tested on: A549 cells; assay: Cytotoxicity test on A549 cells; type: cell-based; details: Homo sapiens, 24 hours after drug administration
Experimental: The amount of the cells in each test well was 100 cells. 24 hours after the drug administration, the cell counts were measured.

[3] = tested on: HT-29 cells; assay: Cytotoxicity test on HT-29 cells; type: cell-based; details: Homo sapiens, 24 hours after drug applied

**Q.** Which “K (Korsmeyer-Peppas model)” value [1] does the source give for CC[C@@]1(O)C(=O)OCc2c1cc1n(c2=O)Cc2cc3ccccc3nc2-1 [Camptothecin] here?
**A.** 44.25

**Q.** And the “n (Korsmeyer-Peppas model)” value [1]?
**A.** 0.09985

**Q.** And the IC50 [2]?
**A.** 40.1 µg/mL (≈ 115 µM)

**Q.** And the IC50 [3]?
**A.** 52.3 µg/mL (≈ 150 µM)
